Columns and labels:
[1] = system: pancreatic cancer MIA PaCa-2 cells; experiment: Cell viability (MTT) assay, MIA PaCa-2; type: cell-based, human; conditions: for IC50: 24 h incubation, n = 9, MTT, read-out: IC50 ± SD, MIA PaCa-2
Protocol: (§1) The potential therapeutic activity of the copper pyrithione complexes was determined by screening complexes for 24 hours against human cancer cell lines MCF-7 (breast) and MIA PaCa-2 (pancreatic), alongside a non-cancerous epithelial cell line ARPE-19 (retinal). As controls, cisplatin and CuCl2·2H2O were also included in the screen (Table 2). […]
(§2) All cell lines were maintained as monolayers in either T75 or T175 flasks in complete high glucose DMEM media (supplemented with 10% Fetal Bovine Serum, 1% sodium pyruvate, 1% L-glutamine, 1% penstrep). All cell lines were seeded at 4000 cells/well in a clear-bottom 96-well plate and incubated for 24 h for cells to adhere. The cells were treated with varying concentrations of each complex and left to incubate for a further 24 h. MTT reagent (20 mL, 5 mg/mL) was added to each well, and the plates were incubated for 3 h. The media was removed by aspiration, followed by the addition of DMSO (150 mL) to solubilise the formazan. The absorbance was read using a Clariostar plate reader at 540 nm. Results were plotted on a logarithmic scale, and the half maximal inhibitory concentration (IC 50) was determined from a triplicate of triplicate repeats and reported as an IC 50 ± Standard Deviation (SD). […]

[2] = system: breast cancer MCF-7 cells; experiment: Cell viability (MTT) assay, MCF-7; type: cell-based, human; conditions: for IC50: 24 h incubation, n = 9, MTT, read-out: IC50 ± SD, MCF-7; for Selectivity index (SI) against MCF-7: IC50 against non-cancerous ARPE-19 cells divided by IC50 against MCF-7
Protocol: as §1, §2

[3] = system: non-cancerous retinal epithelial ARPE-19 cells; experiment: Cell viability (MTT) assay, ARPE-19; type: cell-based; conditions: 24 h incubation, n = 9, MTT; read-out: IC50 ± SD, ARPE-19
Protocol: as §1, §2

[4] = system: MCF-7 cells; experiment: Reactive oxygen species study, H2DCFDA stain (Method 1); type: cell-based, human; conditions: complex at 10 μM for 1 h, H2DCFDA 20 μM for 30 min
Description: To understand a potential mechanism of action, we determined production of reactive oxygen species (ROS) using fluorescent microscopy assays. ROS production is a common mode of therapeutic activity of copper complexes.[43] […] In the presence of ROS, H2DCFDA converts to a fluorescent dye that can be observed using microscopy. […] By contrast, control cells with no pyrithione complex added show little fluorescence (Fig. 6A). […] (Fig. 6B), [Cu(6-Me-PT)2] (Fig. 6C), and [Cu(3-OMe-PT)2] […] (Fig. 6D) was weaker. This variation correlates well with the cytotoxicity data in Table 2, with the methyl and methoxy complexes also showing the highest activity.
Next, cells were dosed at two concentrations of pyrithione complex to determine whether production of ROS is dose-dependent. Results for [Cu(3-OMe-PT)2] are shown at 1 μM (Fig. 6E) and 10 μM (Fig. 6F) after 1 hour; results for other complexes are shown in the SI (Fig. S11 and 12). In all cases, the fluorescence intensity increases in assays with 10 μM complex, compared to assays with 1 μM complex, supporting a mode of action where increasing complex concentration leads to increased ROS generation and higher cytotoxicity. […]
absorbance and K = binding constant. […]
The cells were treated with varying
Results were plotted on a
Reactive oxygen species study:
Method 1: 2′,7′-dichlorodihydrofluorescein diacetate (H 2DCFDA) stain: […]
untreated sample (negative control). After this time, 2′,7′-dichlorodihydrofluorescein diacetate […]
Stock solutions of the compounds (5 mM) were made

[5] = Thermodynamic stability constant, Benesi-Hildebrand UV-vis titration; type: physicochemical; conditions: Benesi-Hildebrand method, MeCN:H2O 1:1, absorbance at 320 nm
Protocol: (§3) Where [M] is concentration of copper, [L] is concentration of the activated ligand, b is the pathlength, which was kept at 1 cm, ɛ is molar extinction coefficient of the complex, A is absorbance and K = binding constant.
All cell lines were maintained as monolayers in either T75 or T175 flasks in complete high glucose DMEM media (supplemented with 10% Fetal Bovine Serum, 1% sodium pyruvate, 1% L-glutamine, 1% penstrep). All cell lines were seeded at 4000 cells/well in a clear-bottom 96-well plate and incubated for 24 h for cells to adhere. The cells were treated with varying concentrations of each complex and left to incubate for a further 24 h. MTT reagent ([…], 5 mg/mL) was added to each well, and the plates were incubated for 3 h. The media was removed by aspiration, followed by the addition of DMSO ([…]) to solubilise the formazan. The absorbance was read using a Clariostar plate reader at 540 nm. Results were plotted on a logarithmic scale, and the half maximal inhibitory concentration (IC 50) was determined from a triplicate of triplicate repeats and reported as an IC 50 ± Standard Deviation (SD).

[6] = system: HepG2 (liver) cancer cell line; conditions: cited from earlier work
[7] = system: NCI-H929 (myeloma) cancer cell line; conditions: cited from earlier work
[8] = system: MCF-7 (breast) cancer cell line; conditions: cited from earlier work
[9] = Solubility by observation; conditions: aqueous and organic solvents, qualitative
[10] = Lipophilicity, octanol:water shake-flask method with ICP-OES copper quantification; conditions: copper by ICP-OES, triplicate
Protocol: Due to the low aqueous solubility of [Cu(PT)2], inductively coupled plasma-optical emission spectroscopy (ICP-OES) was used to quantify copper in the octanol and water layers (see SI).
General procedure for logP measurement:
Stock solutions (10 mM) of the tested copper complexes were prepared in DMSO solvent.
Water and octanol were saturated with the other solvent to match the final shake-flask
conditions. Next, log P values were determined using the shake-flask method. For each
complex, 60 µl of the stock solution was added to a mixture of 3 ml water and 3 ml n-octanol.
The solution was shaken by hand and vortexed. The layers were separated and analysed by
inductively coupled plasma optical emission spectroscopy (ICP-OES). For the octanol layer,
100 µl was collected in a vial and the solvent was evaporated under high vacuum. Next, the
residue was dissolved in 100 µl methanol and further diluted with 10 ml of 5% aqueous nitric
acid (HNO 3) solution for digestion. For the water layer, 1 ml of solution was diluted with 9 ml
of 5% aqueous HNO 3 solution. After analysis through ICP-OES technique, the amount of
copper in each sample was determined in ppm. To remove background copper, the exact
conditions were repeated in the absence of copper pyrithione complexes and the values were
subtracted from the measured values. The partition coefficient (P) and respective logP values

[11] = system: U266 (myeloma) cancer cell line; conditions: cited from earlier work
[12] = system: MCF-7 cells; conditions: dosed, fixed
Protocol: as §3
as §2, with “MTT reagent (20 mL, 5 mg/mL) was added to each well, and the plates were incubated for 3 h. The media was removed by aspiration, followed by the addition of DMSO (150 mL) to solubilise the formazan.” left out
MCF-7 cells were seeded into a black 96 well optical bottom plate at 8000 cells/well in phenol-red free complete DMEM medium (100 μl), and incubated at 37 °C and 5% CO 2 for 24 h. […] Cells were gently washed with PBS (2 x 100 µl), and 100 µl of PBS was added to each well before reading.
Fluorescence images were obtained using Zeiss Axio Observer 7 inverted microscope at excitation at 488 nm and emission at 509 nm, and analysed using ZEN 3.8 software. […]

Question: With N.N.[Cl][Pt][Cl] [Cisplatin, reference compound] as the compound, how does the IC50 [1] read?
Answer: > 100000 nM

Question: And the “Selectivity index (SI) against MIA PaCa-2” value ([1]; IC50 against non-cancerous ARPE-19 cells divided by IC50 against MIA PaCa-2)?
Answer: < 0.13

Question: What about the IC50 [2] of the same compound?
Answer: 40000 ± 1000 nM

Question: And the IC50 [3]?
Answer: 13000 ± 100 nM

Question: Which IC50 [1] does the source give for [Cl][Cu][Cl] [CuCl2·2H2O, reference compound] here?
Answer: > 100000 nM

Question: What about the IC50 [2] of the same compound?
Answer: > 100000 nM

Question: And the IC50 [3]?
Answer: 83000 ± 2000 nM

Question: For Cc1cccn([O-])c1=S.Cc1cccn([O-])c1=S.[Cu+2] [[Cu(3-Me-PT)2]], which IC50 [1] is on record?
Answer: 7100 ± 200 nM

Question: What about the IC50 [2] of the same compound?
Answer: 347 ± 6 nM

Question: And the “Selectivity index (SI) against MCF-7” value [2]?
Answer: 6.34

Question: And the IC50 [3]?
Answer: 2200 ± 100 nM

Question: For COc1ccc[n+]([O-])c1[S][Cu][S]c1c(OC)ccc[n+]1[O-] [[Cu(3-OMe-PT)2]], which “ROS production, H2DCFDA fluorescence” value [4] is on record?
Answer: brightest fluorescence

Question: What about the IC50 [1] of the same compound?
Answer: 2700 ± 100 nM

Question: And the IC50 [2]?
Answer: 220 ± 10 nM

Question: What about the “Selectivity index (SI) against MCF-7” value [2] of the same compound?
Answer: 3.95

Question: And the IC50 [3]?
Answer: 870 ± 40 nM

Question: What about the “Log(K/(M^−2))” value [5] of the same compound?
Answer: 7.560 ± 0.002

Question: Which IC50 [1] does the source give for [Cu+2].[O-]n1ccc(C(F)(F)F)cc1=S.[O-]n1ccc(C(F)(F)F)cc1=S [[Cu(4-CF3-PT)2]] here?
Answer: 21600 ± 400 nM

Question: What about the IC50 [2] of the same compound?
Answer: 8900 ± 300 nM

Question: What about the IC50 [3] of the same compound?
Answer: 17300 ± 400 nM

Question: Which IC50 [1] does the source give for Cc1cc[n+]([O-])c([S][Cu][S]c2cc(C)cc[n+]2[O-])c1 [[Cu(4-Me-PT)2]] here?
Answer: 8500 ± 300 nM

Question: And the IC50 [2]?
Answer: 690 ± 20 nM

Question: What about the IC50 [3] of the same compound?
Answer: 1800 ± 100 nM

Question: Which results are given for Cc1cccc([S][Cu][S]c2cccc(C)[n+]2[O-])[n+]1[O-] [[Cu(6-Me-PT)2]]?
Answer: ROS production, H2DCFDA fluorescence [4]: brightest fluorescence; IC50 [1]: 2100 ± 100 nM; IC50 [2]: 570 ± 10 nM; IC50 [3]: 570 ± 30 nM; Log(K/(M^−2)) [5]: 7.498 ± 0.005

Question: Which “IC50 against HepG2” value [6] does the source give for On1ccccc1=S.On1ccccc1=S.[Cu] [[Cu(PT)2], copper pyrithione] here?
Answer: submicromolar

Question: And the “ROS production, H2DCFDA fluorescence” value [4]?
Answer: brightest fluorescence

Question: What about the “IC50 against NCI-H929” value [7] of the same compound?
Answer: submicromolar

Question: And the IC50 [1]?
Answer: 2220 ± 80 nM

Question: What about the “IC50 against MCF-7” value [8] of the same compound?
Answer: submicromolar

Question: What about the IC50 [2] of the same compound?
Answer: 270 ± 10 nM

Question: What about the “Solubility (by observation)” value [9] of the same compound?
Answer: low solubility

Question: What about the “Log P” value [10] of the same compound?
Answer: 2.34

Question: What about the “IC50 against U266” value [11] of the same compound?
Answer: submicromolar

Question: And the “ROS levels compared to menadione, CellROX stain” value [12]?
Answer: lower levels of ROS

Question: What about the IC50 [3] of the same compound?
Answer: 410 ± 50 nM

Question: And the “Log(K/(M^−2))” value [5]?
Answer: 7.528 ± 0.004

From PMC12519996, “Copper pyrithione complexes with endoplasmic reticulum localisation showing anticancer activity via ROS generation” (Chemical Science, 2025)
